How the values were obtained:
Conditions in all cases: 72 h
HepG2 [1] = assay: cell viability relative to DMSO; higher = less toxic
U2OS [2] = assay: as above
Calu-3 [3] = assay: as above
Caco-2 [4] = assay: as above
Vero E6 [5] = assay: as above
HepG2 [6] = assay: relative viability EC50 (midpoint between 100% and the lowest measured viability); higher = less toxic
U2OS [7] = assay: as above
Calu-3 [8] = assay: as above
Caco-2 [9] = assay: as above
Vero E6 [10] = assay: as above
HepG2 [11] = assay: drug sensitivity score (DSS) for viability; higher = more toxic; extreme values may be limits of the assay
U2OS [12] = assay: as above
Calu-3 [13] = assay: as above
Caco-2 [14] = assay: as above
Vero E6 [15] = assay: as above

Row | SMILES | cell viability (HepG2 [1]; 1 nM) [%] | cell viability (HepG2 [1]; 10 nM) [%] | cell viability (HepG2 [1]; 100 nM) [%] | cell viability (HepG2 [1]; 1000 nM) [%] | cell viability (HepG2 [1]; 10000 nM) [%] | cell viability (U2OS [2]; 1 nM) [%] | cell viability (U2OS [2]; 10 nM) [%] | cell viability (U2OS [2]; 100 nM) [%] | cell viability (U2OS [2]; 1000 nM) [%] | cell viability (U2OS [2]; 10000 nM) [%] | cell viability (Calu-3 [3]; 1 nM) [%] | cell viability (Calu-3 [3]; 10 nM) [%] | cell viability (Calu-3 [3]; 100 nM) [%] | cell viability (Calu-3 [3]; 1000 nM) [%] | cell viability (Calu-3 [3]; 10000 nM) [%] | cell viability (Caco-2 [4]; 1 nM) [%] | cell viability (Caco-2 [4]; 10 nM) [%] | cell viability (Caco-2 [4]; 100 nM) [%] | cell viability (Caco-2 [4]; 1000 nM) [%] | cell viability (Caco-2 [4]; 10000 nM) [%] | cell viability (Vero E6 [5]; 1 nM) [%] | cell viability (Vero E6 [5]; 10 nM) [%] | cell viability (Vero E6 [5]; 100 nM) [%] | cell viability (Vero E6 [5]; 1000 nM) [%] | cell viability (Vero E6 [5]; 10000 nM) [%] | relative viability EC50 (HepG2 [6]) [µM] | relative viability EC50 (U2OS [7]) [µM] | relative viability EC50 (Calu-3 [8]) [µM] | relative viability EC50 (Caco-2 [9]) [µM] | relative viability EC50 (Vero E6 [10]) [µM] | drug sensitivity score (HepG2 [11]) | drug sensitivity score (U2OS [12]) | drug sensitivity score (Calu-3 [13]) | drug sensitivity score (Caco-2 [14]) | drug sensitivity score (Vero E6 [15])
1 | CC1(CN)Cc2ccccc2C1 [ORG-9768] | 98 | 109 | 96.3 | 112 | 102 | 99.5 | 98 | 101 | 102 | 102 | 109 | 105 | 95.4 | 102 | 96.9 | 93 | 87.1 | 101 | 93.9 | 110 | 91.2 | 96.8 | 94 | 98.5 | 109 | > 10 | > 10 | > 10 | > 10 | > 10 | 0 | 0 | 0 | 0 | 0
2 | CN1CC[C@@H]2CN3CCc4cccc(c43)[C@@H]2C1 [SDZ-SER-082] | 106 | 103 | 104 | 95.8 | 110 | 98.1 | 97.8 | 98.8 | 100 | 95.2 | 95.7 | 102 | 114 | 94.9 | 100 | 86.8 | 98.7 | 93.4 | 103 | 100 | 95.1 | 92.7 | 95.6 | 92.5 | 103 | > 10 | > 10 | > 10 | > 10 | > 10 | 0 | 0 | 0 | 0 | 0
3 | CC1(C)CC(=O)c2c(C(F)(F)F)nn(-c3ccc(C(N)=O)c(N[C@H]4CC[C@H](O)CC4)c3)c2C1 [SNX-2112] | 108 | 96.3 | 3.7 | 0.4 | 1.1 | 100 | 102 | 27.1 | 2.7 | 1.6 | 99.9 | 103 | 44.6 | 35.7 | 35.1 | 95.2 | 102 | 59.3 | 34.4 | 32.7 | 95.3 | 101 | 99.8 | 44.9 | 26.9 | 0.0313 | 0.0659 | 0.0505 | 0.0844 | 0.639 | 30.4 | 26.1 | 18.6 | 17.3 | 10.5
4 | Cc1[nH]c(/C=C2\C(=O)Nc3cc(-c4ccccc4)ccc32)c(C)c1CCC(=O)O [SU16f] | 92.3 | 95.1 | 87.6 | 97.9 | 76.8 | 104 | 97 | 102 | 95.5 | 89.1 | 99.8 | 108 | 107 | 103 | 104 | 98.7 | 100 | 97.5 | 91.9 | 83.3 | 92.9 | 93.3 | 93.8 | 92.8 | 87 | > 10 | > 10 | > 10 | > 10 | > 10 | 1 | 0.1 | 0 | 0.7 | 0
5 | C/C(=N\c1ccccc1N)c1c(C)cc(=O)n(O)c1O [SUN-B-8155] | 101 | 104 | 102 | 99.7 | 77.3 | 97.3 | 104 | 98.9 | 99.7 | 96.3 | 110 | 115 | 91.8 | 104 | 110 | 102 | 105 | 99.4 | 103 | 96.2 | 101 | 104 | 101 | 98.6 | 104 | > 10 | > 10 | > 10 | > 10 | > 10 | 0.8 | 0 | 0 | 0 | 0
6 | C[C@H](C[C@H](N)C(=O)O)C(=O)O [SYM-2081] | 104 | 88.4 | 91.9 | 96.6 | 93.8 | 100 | 97.5 | 100 | 97.7 | 106 | 102 | 88.4 | 96.6 | 95.3 | 102 | 103 | 96 | 105 | 97.5 | 98.4 | 101 | 102 | 95.1 | 104 | 93.4 | > 10 | > 10 | > 10 | > 10 | > 10 | 0 | 0 | 0 | 0 | 0
7 | Cc1cc(C(=O)Nc2cc(Oc3ccc4nc(NC(=O)C5CC5)cn4n3)ccc2C)n(C)n1 [TAK-593] | 99.1 | 95.5 | 93.1 | 104 | 75.4 | 101 | 103 | 98.4 | 95.1 | 94.1 | 94.6 | 102 | 97.6 | 101 | 98.3 | 98.4 | 99 | 93.2 | 97.6 | 80.5 | 99.6 | 101 | 96.3 | 95.4 | 91.1 | > 10 | > 10 | > 10 | > 10 | > 10 | 0.7 | 0 | 0 | 0.9 | 0
8 | CN(C)CCNc1nc2cc(O)ccc2c2c1C(=O)c1ccccc1-2 [TAS-103] | 100 | 95.9 | 66.3 | 15.5 | 0.3 | 99.4 | 95.3 | 95.3 | 49.5 | 0 | 109 | 93.4 | 89.1 | 50.4 | 15.4 | 102 | 104 | 102 | 56.8 | 22.3 | 101 | 106 | 84.8 | 40 | 0.1 | 0.19 | 0.975 | 0.67 | 0.915 | 0.634 | 19.7 | 11.5 | 11.1 | 9.6 | 13.4
9 | O=C(Nc1ccc(F)cc1)N1CCc2ccccc2[C@@H]1c1ccc(C(F)(F)F)cc1 [TC-I-2000] | 93.6 | 109 | 99.5 | 101 | 94.2 | 98.7 | 99.2 | 102 | 99.8 | 102 | 107 | 98.3 | 94.6 | 99 | 97.4 | 102 | 103 | 95.9 | 98.7 | 93.3 | 108 | 101 | 102 | 103 | 89.7 | > 10 | > 10 | > 10 | > 10 | > 10 | 0 | 0 | 0 | 0 | 0
10 | COc1cccc(-n2nc(C(=O)O)cc2-c2ccc(C3CCCCC3)c(Cl)c2)c1 [TC-LPA5-4] | 111 | 92.6 | 101 | 104 | 102 | 100 | 96.4 | 97.8 | 94.9 | 94.9 | 97.4 | 94.5 | 101 | 95.8 | 108 | 87.4 | 93.6 | 96.4 | 97.7 | 101 | 102 | 104 | 103 | 99.6 | 96 | > 10 | > 10 | > 10 | > 10 | > 10 | 0 | 0 | 0 | 0 | 0
11 | O=C1c2ccccc2C(Cc2ccncc2)(Cc2ccncc2)c2ccccc21 [XE-991] | 97.8 | 97.6 | 97.6 | 96.3 | 89.1 | 103 | 98.8 | 100 | 96.5 | 100 | 108 | 87.7 | 108 | 91.2 | 99.8 | 100 | 94.1 | 97.5 | 93.8 | 89.2 | 94.5 | 101 | 98.8 | 93.3 | 91.1 | > 10 | > 10 | > 10 | > 10 | > 10 | 0 | 0 | 0 | 0 | 0
12 | Nc1ncnc2c1ncn2[C@@H]1O[C@H](COP(=O)(O)O)[C@@H](O)[C@H]1O [adenosine-phosphate] | 90.2 | 94.5 | 101 | 85.6 | 96 | 97.9 | 102 | 94.6 | 104 | 107 | 89.1 | 93.5 | 93.6 | 101 | 89.6 | 114 | 98 | 86.4 | 113 | 92.8 | 101 | 108 | 110 | 91 | 102 | > 10 | > 10 | > 10 | > 10 | > 10 | 0 | 0 | 0 | 0 | 0
13 | C=CCSCC1Nc2cc(Cl)c(S(N)(=O)=O)cc2S(=O)(=O)N1 (stereo not given) [althiazide] | 109 | 116 | 94.2 | 102 | 107 | 96.1 | 95.5 | 100 | 96.9 | 100 | 111 | 94.8 | 112 | 112 | 101 | 90.1 | 96.8 | 93 | 90.9 | 89.8 | 97.8 | 97.2 | 98.8 | 104 | 112 | > 10 | > 10 | > 10 | > 10 | > 10 | 0 | 0 | 0 | 0 | 0
14 | C[C@H]1CN(C[C@H](Cc2ccccc2)C(=O)NCC(=O)O)CC[C@@]1(C)c1cccc(O)c1 [alvimopan] | 96.8 | 103 | 110 | 99.3 | 104 | 100 | 97.3 | 101 | 104 | 102 | 107 | 91.9 | 104 | 111 | 104 | 102 | 91.8 | 93.6 | 107 | 106 | 90.4 | 96.2 | 94.8 | 95.8 | 104 | > 10 | > 10 | > 10 | > 10 | > 10 | 0 | 0 | 0 | 0 | 0

Reference: the supplement of paper PMC13380429
